Patent US20200024278A1, “COMPOSITION COMPRISING ANTIBIOTIC COMPOUND AND AN HETEROCYCLIC COMPOUND AND THEIR USE IN PREVENTING OR TREATING BACTERIAL INFECTIONS” (MUTABILIS, priority 2016, published 2020)

Experiments:
Test in all cases: MIC, broth microdilution (CLSI), substance alone or ATB combined with compound at 4 or 8 μg/mL
[1] = system: KPN BAA-1898; type: cell-based, K. pneumoniae; details: KPN BAA-1898; for MIC ATB combined with Example: Example @8 μg/ml
Procedure, shortened: (§1)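 Broth microdilution; ca-MHB; 5·10^5 CFU/mL; 35° C, 16-20 h; compound alone or fixed 4/8 μg/mL with antibiotic series; endpoint = no visible growth.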

[2] = system: KPN UFR42; type: cell-based, K. pneumoniae; details: KPN UFR42; for MIC ATB combined with Example: Example @8 μg/ml; for MIC ATB combined with Example compound: compound @8 μg/ml
Procedure, shortened: as §1

[3] = system: KPN 6299; type: cell-based, K. pneumoniae; details: for MIC ATB combined with Example: Example @8 μg/ml
Procedure, shortened: as §1

[4] = system: SPN 49619; type: cell-based, S. pneumoniae; details: SPN 49619; for MIC ATB combined with Example: Example @8 μg/ml; for MIC ATB combined with Example compound: compound @8 μg/ml
Procedure, shortened: as §1

[5] = system: ABA UFR151; type: cell-based, A. baumannii; details: substance alone
Procedure, shortened: as §1

[6] = system: ABA UFR160; type: cell-based, A. baumannii; details: substance alone
Procedure, shortened: as §1

[7] = system: ECO 190317; type: cell-based, E. coli; details: ECO 190317; for MIC ATB combined with Example: Example @8 μg/ml
Procedure, shortened: as §1

[8] = system: ECO UFR39; type: cell-based, E. coli; details: ECO UFR39, Example @8 μg/ml
Procedure, shortened: as §1

O=C1N2CC(n3ccnn3)=CC(C2)N1OS(=O)(=O)[O-].[Na+] (stereo not shown) [Example 12, sodium [7-oxo-3-(triazol-1-yl)-1,6-diazabicyclo[3.2.1]oct-3-en-6-yl] sulfate]
8 µg/mL: MIC ATB combined with Example ([4]; ATB FOS) | MIC ([4]; substance alone)
0.00049 µg/mL: MIC ATB combined with Example compound ([4]; MIC of RIF)
2 µg/mL: MIC ([1]; substance alone)
0.063 µg/mL: MIC ATB combined with Example compound ([4]; MIC of CIP)
<0.0020 µg/mL: MIC ATB combined with Example compound ([4]; MIC of ERY)
0.016 µg/mL: MIC ATB combined with Example compound ([4]; MIC of VAN)
0.031 µg/mL: MIC ATB combined with Example compound ([4]; MIC of DAP)
<0.0010 µg/mL: MIC ATB combined with Example compound ([4]; MIC of CLI)
<0.031 µg/mL: MIC ATB combined with Example ([1]; ATB ATM) | MIC ATB combined with Example ([1]; ATB FEP) | MIC ATB combined with Example ([1]; ATB MEM) | MIC ATB combined with Example ([1]; ATB PIP) | MIC ATB combined with Example compound ([1]; MIC of CIP, compound @8 μg/ml) | MIC ATB combined with Example ([2]; ATB ATM) | MIC ATB combined with Example ([2]; ATB FEP) | MIC ATB combined with Example ([2]; ATB MEM) | MIC ATB combined with Example ([2]; ATB PIP) | MIC ATB combined with Example compound ([2]; MIC of CIP) | MIC ATB combined with Example compound ([2]; MIC of CPO) | MIC ATB combined with Example ([3]; ATB ATM) | MIC ATB combined with Example ([3]; ATB FEP) | MIC ATB combined with Example ([3]; ATB MEM) | MIC ATB combined with Example ([3]; ATB PIP) | MIC ATB combined with Example compound ([3]; MIC of CIP, compound @8 μg/ml) | MIC ATB combined with Example ([7]; ATB ATM) | MIC ATB combined with Example ([7]; ATB FEP) | MIC ATB combined with Example ([7]; ATB MEM) | MIC ATB combined with Example ([7]; ATB PIP) | MIC ATB combined with Example compound ([7]; MIC of CIP, compound @8 μg/ml) | MIC ATB combined with Example ([8]; ATB ATM) | MIC ATB combined with Example ([8]; ATB FEP) | MIC ATB combined with Example ([8]; ATB MEM)
0.25 µg/mL: MIC ATB combined with Example ([4]; ATB PIP) | MIC ATB combined with Example compound ([4]; MIC of LZD)
>32 µg/mL: MIC ATB combined with Example ([4]; ATB ATM) | MIC [5] | MIC [6]
0.125 µg/mL: MIC ATB combined with Example compound ([4]; MIC of SYN)
<=0.031 μg/mL: MIC ATB combined with Example ([4]; ATB FEP) | MIC ATB combined with Example ([4]; ATB MEM) | MIC ATB combined with Example compound ([4]; MIC of CPO)
4 µg/mL: MIC ([2]; substance alone)
<0.125 µg/mL: MIC ATB combined with Example ([1]; ATB FOS) | MIC ATB combined with Example ([2]; ATB FOS) | MIC ATB combined with Example ([3]; ATB FOS) | MIC ATB combined with Example ([7]; ATB FOS) | MIC ATB combined with Example ([8]; ATB FOS)
1 µg/mL: MIC ([7]; substance alone)
